# Molecular target: T1, FLAG-tagged full length PHD2 (Homo sapiens, UniProt Q9GZT9)
# T1 construct: FLAG-tagged full length PHD2; FLAG; made in house; host or cells: baculovirus-infected Sf9 cells
# Test: PHD2 inhibition assay (time resolved fluorescence, HIF-1α peptide hydroxylation, VHL detection)
# Format: biochemical
# Conditions: 0.2 μM 2-oxoglutarate, 0.5 μM HIF-1α peptide, 2 hr at room temperature; read-out: PHD2 Activity (PHD2 binding activity expressed as IC50)
# Method: To each well of a 96-well plate was added 1 μL of test compound in DMSO and 20 μl of assay buffer (50 mM Tris pH 7.4/0.01% Tween-20/0.1 mg/ml bovine serum albumin/10 μM ferrous sulfate/1 mM sodium ascorbate/20 μg/ml catalase) containing 0.15 μg/ml FLAG-tagged full length PHD2 expressed in and purified from baculovirus-infected Sf9 cells. After a 30 min preincubation at room temperature, the enzymatic reactions were initiated by the addition of 4 μL of substrates (final concentrations of 0.2 μM 2-oxoglutarate and 0.5 μM HIF-1α peptide biotinyl-[…]).
# T1 sequence (Q9GZT9 whole entry): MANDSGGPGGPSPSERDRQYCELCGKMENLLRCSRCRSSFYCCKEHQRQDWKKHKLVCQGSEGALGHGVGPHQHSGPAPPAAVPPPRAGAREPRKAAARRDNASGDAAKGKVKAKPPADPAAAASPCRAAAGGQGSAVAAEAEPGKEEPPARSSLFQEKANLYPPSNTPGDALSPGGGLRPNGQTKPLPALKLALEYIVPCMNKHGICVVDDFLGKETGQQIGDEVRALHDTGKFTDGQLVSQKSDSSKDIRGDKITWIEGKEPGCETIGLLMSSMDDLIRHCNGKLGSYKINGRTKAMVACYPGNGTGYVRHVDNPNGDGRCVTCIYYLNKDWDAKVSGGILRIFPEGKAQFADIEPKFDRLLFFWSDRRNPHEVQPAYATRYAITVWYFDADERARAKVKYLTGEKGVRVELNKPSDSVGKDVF
smiles,measurement,value
"O=C(O)CNC(=O)c1c(O)c2c(n(Cc3ccc(-c4ccccc4)cc3)c1=O)CS(=O)(=O)C2 [Example 64, N-{[1-(biphenyl-4-ylmethyl)-4-hydroxy-6,6-dioxido-2-oxo-1,2,5,7-tetrahydrothieno[3,4-b]pyridin-3-yl]carbonyl}glycine]",IC50,≤ 10 nM
"O=C(O)CNC(=O)c1c(O)c2c(n(Cc3ccc(OC(F)(F)F)cc3)c1=O)CS(=O)(=O)C2 [Example 65, N-({4-hydroxy-6,6-dioxido-2-oxo-1-[4-(trifluoromethoxy)benzyl]-1,2,5,7-tetrahydrothieno[3,4-b]pyridin-3-yl}carbonyl)glycine]",IC50,≤ 10 nM
"CCc1ccc(Cn2c3c(c(O)c(C(=O)NCC(=O)O)c2=O)CS(=O)(=O)C3)cc1 [Example 66, N-{[1-(4-ethylbenzyl)-4-hydroxy-6,6-dioxido-2-oxo-1,2,5,7-tetrahydrothieno[3,4-b]pyridin-3-yl]carbonyl}glycine]",IC50,≤ 10 nM
